Consider three compounds from patent US11970474B2, “Substituted benzodiazoles and use thereof in therapy” (THOMAS HELLEDAYS STIFTELSE FÖR MEDICINSK FORSKNING, priority 2018, dated 2024).

The structures appear in SMILES notation.

In experiment [1] the target is OGG1 (Homo sapiens (Human), UniProt O15527). The experiment can be described thus: In vitro OGG1 activity assay. In kind it is biochemical. The settings on record: 800 pM OGG1 enzyme, 2 nM human APEX1, 10 nM 8-oxoA:C substrate. The essentials: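 Fluorescence-release assay on a duplex oligonucleotide carrying an OGG1 substrate base beside a fluorophore, quenched from the complementary strand. Excess APEX1 cleaves the abasic site left by base excision, melting the duplex and unquenching the fluorophore. Compounds in DMSO were dispensed before enzyme and substrate, and fluorescein signal was read.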
Sequence of OGG1 (O15527 whole entry): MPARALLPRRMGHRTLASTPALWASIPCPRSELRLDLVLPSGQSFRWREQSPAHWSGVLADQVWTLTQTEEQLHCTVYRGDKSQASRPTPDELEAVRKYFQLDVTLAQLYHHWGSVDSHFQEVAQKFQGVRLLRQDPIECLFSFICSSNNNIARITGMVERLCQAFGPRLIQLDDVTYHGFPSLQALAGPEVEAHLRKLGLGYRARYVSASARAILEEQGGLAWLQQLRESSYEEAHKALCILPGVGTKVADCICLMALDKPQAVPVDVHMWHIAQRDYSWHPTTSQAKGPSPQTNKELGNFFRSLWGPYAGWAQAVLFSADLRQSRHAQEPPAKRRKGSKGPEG

The subject of experiment [2] is CCD841. The experiment can be described thus: Cell viability assay (resazurin). Type of experiment: cell-based. The settings on record: CCD-841, 120 h, Normal, fetal epithelial colon, five day incubation. How it is done:
(§1) A dilution series of compound or vehicle are transferred to 96-well plates. Cells are seeded into the plate (500-10,000 cells/well) in suitable media and incubated for five days in 5% CO2 at 37° C. Thereafter, resazurin (diluted in suitable medium or PBS) are added to a final concentration 10 μg/ml resazurin at 37° C. for 2-4 hours before measuring the fluorescence (Ex544/Em590), essentially as described (Riss, Terry L. et al., “Cell Viability Assays.” In Assay Guidance Manual, ed. G. Sitta Sittampalam, et al. Bethesda (Md.): Eli Lilly & Company and the National Center for Advancing Translational Sciences (2004) http://www.ncbi.nlm.nih.gov/books/NBK144065/).
(§2) The compounds to be tested are nano-dispensed in duplicate in 11 concentrations, directly in 384-well cell plates, with a final DMSO concentration<1%. Cells are seeded in cell plates, pre-dispensed with compounds (200-2500 cells/well in 50 μl). After three or five days culture in 5% CO2, 37° C., resazurin diluted in PBS is added, 10 μl/well, to a final concentration of 10 μg/ml and cells are incubated 2-4 hours before measuring fluorescence (Ex544/Em590), as described (ibid.). Results obtained for selected example compounds described herein on cancer- and non-transformed cell lines are provided in the table below (Table 3) and summarized in FIG. 1. Where indicated, combination indexes was measured with CompuSyn software (www.compusyn.com) by the method of Chou-Talalay (Chou, Ting-Chao., Cancer Research, 70(2), 440-46 (2010)).

The subject of experiment [3] is KG1a. The experiment is described as follows: Cell viability assay (resazurin). Type of experiment: cell-based. The note with it: Homo sapiens, KG-1a, 120 h, Cancer, Acute Myelogenous Leukemia, five day incubation. Here is the method:
as §1, §2

The test system of experiment [4] is HCT116. The experiment is described as follows: Cell viability assay (resazurin). In kind it is cell-based. The note with it: Homo sapiens, HCT-116, 120 h, Cancer, Colorectal Carcinoma, five day incubation. How it is done: as §1, §2
Experiment [5] concerns U2OS. The experiment is described as follows: Cell viability assay (resazurin). Type of experiment: cell-based. The note with it: Homo sapiens, 120 h, Cancer, Osteosarcoma, five day incubation. How it is done:
as §1, §2

The subject of experiment [6] is LCL#1. The experiment can be described thus: Cell viability assay (resazurin). Type of experiment: cell-based. The note with it: 120 h, Normal, Epstein-Barr-virus-transformed lymphoblastoid cell lines, five day incubation. How it is done:
as §1, §2

The subject of experiment [7] is RFX393. The experiment can be described thus: Cell viability assay (resazurin). Type of experiment: cell-based. The note with it: 120 h, Cancer, Renal cancer cell lines, five day incubation. How it is done:
as §1, §2

For experiment [8], the system named is MEF Ogg1 (−/−). The experiment is described as follows: Cell viability assay (resazurin). The note with it: 120 h, Normal, mouse embryonic fibroblast, five day incubation. In kind it is cell-based. Here is the method:
A dilution series of compound or vehicle are transferred to 96-well plates. Cells are seeded into the plate (500-10,000 cells/well) in suitable media and incubated for five days in 5% CO2 at 37° C.
The compounds to be tested are nano-dispensed in duplicate in 11 concentrations, directly in 384-well cell plates, with a final DMSO concentration<1%.

Experiment [9] relates to MLE12 cells. The experiment is described as follows: Cell viability assay in MLE12 cells (resazurin). Type of experiment: cell-based, mouse. The note with it: Mus musculus, MLE12, 24 h, TNF-α 20 ng/ml, resazurin added after 24 hours culture. The essentials:
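MLE12 cells (7500 cells/well) were seeded onto 11-point duplicate compound dose-responses, with TNF-α (final 20 ng/ml) added after 1 hour at 37° C. After 24 hours, resazurin was added for 6 hours and resorufin fluorescence read (ex544 nm/em595 nm). EC50 values were calculated by curve fitting.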

As for `Cc1cc(NC(=O)N2CCC(n3c(=O)[nH]c4c(Br)cccc43)CC2)ccc1I` [Example 50, 4-(4-Bromo-2-oxo-2,3-dihydro-1H-1,3-benzodiazol-1-yl)-N-(4-iodo-3-methylphenyl)piperidine-1-carboxamide], the figures for the IC50 in experiment [1] and in [9] were 0.149 µM and 7.23 µM, respectively. Besides, the EC50 in experiment [2] stood at 54 µM; in experiment [3], 19 µM; in [4], 29 µM; in experiment [5], 25 µM; in experiment [6], 40 µM; in [7] it was 12 µM. The compound also displayed a concentration giving a half-maximal response (EC50) in experiment [8] of 34 µM.

As for `O=C(Nc1ccc(I)cc1)N1CCC(n2c(=O)[nH]c3c(Br)cccc32)CC1` [Example 13, 4-(4-Bromo-2-oxo-2,3-dihydro-1H-1,3-benzodiazol-1-yl)-N-(4-iodophenyl)piperidine-1-carboxamide], the IC50 was 0.359 µM in [1] and 7.67 µM in experiment [9]. Besides, the EC50 amounted to 43 µM in [2]; 16 µM in [3]; 18 µM in experiment [4]; 20 µM in experiment [5]; 33 µM in experiment [6]; 20 µM in [7]. This compound returned an EC50 in experiment [8] of 48 µM.

Consider `O=C(Nc1ccc(Cl)c(Cl)c1)N1CCC(n2c(=O)[nH]c3c(-c4ccc(CO)nc4)cccc32)CC1` [Example 28, N-(3,4-dichlorophenyl)-4-{4-[6-(hydroxymethyl)pyridin-3-yl]-2-oxo-2,3-dihydro-1H-1,3-benzodiazol-1-yl}piperidine-1-carboxamide], for which the results for the IC50 in experiment [1] and in [9] were 0.766 µM and 7.18 µM, respectively. Further, the 50% effective concentration (EC50) in experiment [2] was determined as 40 µM; in [3] it was 18 µM; in experiment [4], 15 µM; in [5], 16 µM; in experiment [6], 34 µM; in [7] it was 14 µM. Also, in experiment [8], a half-maximal response (EC50) required 46 µM.
